Source: patent publication US20240198337A1, “Bone Marrow on a Chip” (NEW YORK UNIVERSITY, priority 2021, published 2024)

What was measured:
murine B-ALL cells [1] = experiment: Combinational drug regimens in the murine leukemic niche model; type: cell-based; conditions: 5 μg/mL AMD, 1 μg/mL BIO or 10 μM BAY combined with NIL, PRE or VCR for 48 hr
Experimental: The 3D biomimetic leukemic niche model was exploited to test the combinational drug regimens in vitro. Generally, the murine leukemic niche models were cultured for 24 hr after fabrication, then respectively administrated with various pharmaceuticals [i.e. 5 μg/mL AMD3100 (AMD), 1 μg/mL BIO5192 (BIO), and 10 μM BAY 11-7082 (BAY), correspondingly], and concomitantly treated with 1 μM NIL, 1 μM PRE or 0.1 μM VCR for 48 hr. The viability of B-ALL cells was measured by the DAPI staining as described above.
The following investigation concerned whether co-targeting niche-derived pro-survival signals (CXCR4/CXCL12, VCAM-1/VLA-4, and NF-κB signaling) using either CXCR4 inhibitor (AMD), VLA-4 inhibitor (BIO), or NF-κB inhibitor (BAY) could improve the responsiveness of B-ALL-targeting chemotherapeutics. B-ALL blasts and niche cells (containing ECs and MSCs) were co-cultured for 24 hr in the Leukemia-on-a-Chip, and then administered individual niche-targeting compounds in combination with either NIL, PRE or VCR for 48 hr, after which B-ALL cell viability was measured. […] The lack of response to VLA-4 treatment may be due to VLA-4 blockade broke the leukemia dormancy to compensate the B-ALL death.

murine Ph+ B-ALL cells [2] = experiment: Drug resistance testing: B-ALL cell viability in 3D hydrogel devices (Calcein-AM/DAPI); type: cell-based; conditions: NF-κB blockade
murine Ph+ B-ALL cells [3] = experiment: as above; type: cell-based; conditions: NIL 1 μM, PRE 1 μM, VCR 0.1 μM; for viability of B-ALL cells in perivascular versus endosteal niche: 2-day treatment; for B-ALL eradication (viability): absence of niche cells; for B-ALL eradication (viability) / B-ALL drug-induced cell death (chemo-resistance): 48 hr; for B-ALL drug-induced cell death (chemo-resistance): presence of niche cells
Experimental: The outcome of drugs was defined by the viability of B-ALL cells as a cytotoxic end point after drug treatment. B-ALL cells were cultured alone or co-cultured with niche cells in 3D hydrogel devices for 24 hr, and then incubated with 1 μM nilotinib (NIL, Cayman Chemical), 1 μM prednisone (PRE, Sigma), and 0.1 μM vincristine (VCR, Sigma) for 48 hr. The cell viability was quantitatively determined by using Calcein-AM (Thermo Fischer Scientific) and DAPI, which respectively stained the live and dead cells. Briefly, cells were rinsed thrice with PBS and incubated with Calcein-AM and DAPI ([…] and 5 μg/mL in PBS or medium) solution for 30 min at 37° C., followed by a final rinse with PBS. Afterward, cells were observed under a fluorescence microscope, and cellular viability was quantitatively measured by counting the number of objects in the green (live cells) and red (dead cells) channels. Untreated groups of B-ALL cells were used as controls to benchmark the drug resistance of different groups.

murine B-ALL cells [4] = experiment: B-ALL cell adhesion onto niche cells with or without adhesion blockade; type: cell-based; conditions: VLA-4 blockade; 24 hours on niche cell monolayer
Experimental: (FIG. 11A) Experimental setup for testing murine B-ALL cell adhesion onto niche cells [i.e. ECs (C166), MSCs (OP9), and osteoblasts (MC3T3)] with or without adhesion blockade. B-ALL cells were plated into the dishes with niche cell monolayer and cultured for 24 hours, followed by five times washing with warm PBS. The images were then taken with 20× objective. (FIG. 11B) Adhered B-ALL cells were manually counted and plotted as cell number per filed. Each condition has 3 replicates with >10 images being counted. One-way ANOVA followed by Tukey's post hoc test (n.s., not significant, *p<0.05, **p<0.01).

NF-κB = NF-κB activation (nuclear translocation) in B-ALL cells in Leukemia-on-a-Chip; type: cell-based, murine; conditions: B-ALL cells with niche cells
Excerpt: FIG. 8A through FIG. 8J depicts the results of niche cells promoting leukemia progression via cytokine and adhesive signaling. (FIG. 8A) The regional CXCR4 distribution on murine B-ALL cells cultured with or without niche cells. (FIG. 8B) The quantified result corresponding to (FIG. 8A). (FIG. 8C) Membrane-based ELISA analysis of CXCL12 expression level of niche cells (ECs and MSCs). (FIG. 8D) The quantified result corresponding to (FIG. 8C). (FIG. 8E) The representative image showing B-ALL cells co-localized with niche cells via VCAM-1/VLA-4 signaling. (FIG. 8F) The representative images showing nuclear translocation of NF-κB in B-ALL cells. (FIG. 8G) NF-κB activation in B-ALL cells with or without niche cells and under treatments with CXCR4 inhibitor, AMD3100 (AMD) and VLA-4 inhibitor, BIO5192 (BIO). The ratios were manually quantified from 3 experimental replicates (N>200). One-way ANOVA followed by Tukey's post hoc test. […] (FIG. 8I) The quantification of NF-κB activation in human NALM-6, 697, RS(4; 11), and UOCB1 blasts within their leukemia niches. The ratios were manually measured from 3 experimental replicates (N>150). (FIG. 8J) The quantification of NF-κB activation in patient-derived B-ALL blasts within engineered leukemia niches. The ratios for various B-ALL blasts were manually measured from 3 technical replicates (N>20). […]

SMILES | responsiveness of B-ALL blasts to tumor-targeting agents (B-ALL killing) on niche co-targeting (murine B-ALL cells [1]) | viability of B-ALL cells in perivascular versus endosteal niche (murine Ph+ B-ALL cells [3]) | B-ALL eradication (viability) (murine Ph+ B-ALL cells [3]) | B-ALL drug-induced cell death (chemo-resistance) (murine Ph+ B-ALL cells [3]) | nuclear translocation of NF-κB in B-ALL cells (NF-κB) | further results
Cc1ccc(S(=O)(=O)/C=C/C#N)cc1 [BAY 11-7082] | significantly reversed the chemo-protective activity of niche cells | – | – | – | – | B-ALL survival (cell viability) (murine Ph+ B-ALL cells [2]; absence of niche cells): significantly decreased B-ALL survival; B-ALL survival (cell viability) (murine Ph+ B-ALL cells [2]; co-culture with niche cells): partially rescued B-ALL cell survival from BAY treatment
Cc1cn(-c2cc(NC(=O)c3ccc(C)c(Nc4nccc(-c5cccnc5)n4)c3)cc(C(F)(F)F)c2)cn1 [nilotinib] | – | a stronger dormancy and chemo-resistance of B-ALL cells in the endosteal niche | efficient B-ALL eradication | chemo-resistance phenomenon was confirmed | – | B-ALL drug-induced cell death (chemo-resistance) (murine Ph+ B-ALL cells [3]; listed as NIL): partial rescue of drug-induced cell death
C[C@]12C=CC(=O)C=C1CC[C@@H]1[C@@H]2C(=O)C[C@@]2(C)[C@H]1CC[C@]2(O)C(=O)CO [prednisone] | – | a stronger dormancy and chemo-resistance of B-ALL cells in the endosteal niche | efficient B-ALL eradication | chemo-resistance phenomenon was confirmed | – | B-ALL drug-induced cell death (chemo-resistance) (murine Ph+ B-ALL cells [3]; listed as PRE): partial rescue of drug-induced cell death
Cc1ccccc1NC(=O)Nc1ccc(CC(=O)N(C)[C@@H](CC(C)C)C(=O)NCC[C@H](NC(=O)[C@@H]2CCCN2S(=O)(=O)c2cc(Cl)cc(Cl)c2)C(=O)O)cc1 [BIO5192] | no significant effect on the responsiveness of B-ALL blasts to tumor-targeting agents | – | – | – | suppressed the nuclear translocation of NF-κB in B-ALL cells | intercellular adhesion of B-ALL cells onto niche cells (murine B-ALL cells [4]): significantly decrease the intercellular adhesion of B-ALL cells onto niche cells
c1cc(CN2CCCNCCNCCCNCC2)ccc1CN1CCCNCCNCCCNCC1 [AMD3100] | significantly reversed the chemo-protective activity of niche cells | – | – | – | suppressed the nuclear translocation of NF-κB in B-ALL cells | –
